# Key:
# [1] = tested on: adult subjects with schizophrenia; experiment: CGI Improvement score, Clinical Study Three; assay type: in vivo, human; set-up: CGI Improvement Very Much Worse, %: dose or concentration left out as unconfirmed; settings: LOCF
# Experimental: CLINICAL STUDY THREE: Table 29 below presents frequencies for the seven categories of CGI Improvement ratings by visit using LOCF for the ITT population. Statistical differences among treatment groups regarding the mean CGI Improvement score were evaluated using a CMH test stratified by pooled center applied to the frequencies of the seven CGI Improvement categories with modified ridit scores. […] The treatment comparison of the 30 mg bifeprunox group versus placebo group was not notable (p=0.162). No notable differences were observed between the placebo group and either of the two bifeprunox dose groups at any other time point during the study (Week 1 through Week 4).
# [2] = tested on: adult subjects with schizophrenia; experiment: BPRS psychosis cluster score, Clinical Study Three; assay type: in vivo, human; settings: for Change from Baseline in BPRS Psychosis Cluster Score, Mean (SD) / Change from Baseline in BPRS Psychosis Cluster Score, Median / mean change (SD) from Baseline to Endpoint in BPRS psychosis cluster score / Change from Baseline in BPRS Psychosis Cluster Score, Trt Effect (bifeprunox—placebo): LOCF; for Change from Baseline in BPRS Psychosis Cluster Score, Mean (SD) / Change from Baseline in BPRS Psychosis Cluster Score, Median / Change from Baseline in BPRS Psychosis Cluster Score, Trt Effect (bifeprunox—placebo): ITT population; for mean change (SD) from Baseline to Endpoint in BPRS psychosis cluster score: ITT; for BPRS psychosis cluster score, treatment effect (bifeprunox—placebo): Endpoint LOCF
# From the text: SECONDARY OBJECTIVES To assess the efficacy of bifeprunox in treating schizophrenia using the Positive Symptom sub-scale score of the PANSS, the Negative Symptom sub-scale score of the PANSS, the General Psychopathology sub-scale of the PANSS, Brief Psychiatric Rating Scale (BPRS) total score derived from the PANSS, BPRS psychosis score derived from the PANSS, the Clinical Global Impression Severity of Illness score (CGI-S), the Clinical Global Impression Improvement score (CGI-I), CGI-I responder rate, PANSS responder rate based on the PANSS total score, Calgary Depression Scale for Schizophrenia (CDSS), and Subject Satisfaction rating.
# There were four treatment arms in this study, approximately 144 subjects per arm. […] After completing the Single-Blind Placebo Lead-in Period of at least three days, bifeprunox-treated subjects were titrated from 0.25 mg up to 20 mg/day or 30 mg/day according to a standardized titration scheme over a seven- or eight-day period, respectively. When the assigned dose was reached, subjects were maintained at that dose for the remainder of the six week treatment period. […] Subjects were hospitalized (if not already inpatients) after eligibility for study entry was verified, starting from the Screening Visit until at least 10 days after Baseline. Subjects could be hospitalized longer than 10 days if considered medically necessary by the Investigator. Rating scale assessments for efficacy and abnormal movement disorders were done weekly except for Week 5. […] Subject satisfaction with study medication was assessed at Week 6.
# [3] = Metabolic syndrome status, Clinical Study Four; assay type: in vivo, human; settings: 6 months
# Experimental: METHODOLOGY: This study was a multinational, multicenter, randomized, double-blind, parallel-group, placebo-controlled, fixed-dose study. The study consisted of a 3- to 6-day antipsychotic-free run-in period, after which patients were randomised to 6 months of double-blind treatment with fixed doses of bifeprunox (20 mg/day (BX20) or 30 mg/day (BX30)) or placebo (PBO). Patients allocated to the BX groups were up-titrated from 0.25 mg/day over 7 days (BX20) or 8 days (BX30), and then continued on these doses for the remainder of the study. […] At predetermined time points, blood samples were obtained for drug concentration analysis of BX and its major metabolites (3′- and 4′-sulfate conjugates of BX), and pharmaco-economic assessments were performed.
# [4] = Pooled metabolic analysis, 6-month study: glucose
# From the text: OBJECTIVE: To examine the metabolic effects of bifeprunox in patients with acute and stable schizophrenia.
# METHODS: Metabolic data was compiled from one 6-month and four 6-week studies (i.e., a treatment period) of bifeprunox in patients with stable and acute schizophrenia, respectively. In the 6-month study, patients received bifeprunox (n=331) or placebo (PBO) (n=166). […] Metabolic evaluations included body weight, body mass index (BMI), plasma glucose and lipid profiles. Fasting glucose and lipid values were assessed in one 6-week study and in the 6-month study. Triglyceride:HDL ratio (TG:HDL) was calculated as a marker of insulin resistance. No statistical analyses were performed; only descriptive statistics are presented.
# [5] = Olanzapine 15 mg, Week 6/Endpoint
# [6] = Bifeprunox 20 mg, Week 6/Endpoint
# [7] = Bifeprunox 30 mg, Week 6/Endpoint
structure (smiles),measurement,setting,value
"Cc1cc2c(s1)Nc1ccccc1N=C2N1CCN(C)CC1 [Olanzapine, olanzapine, reference compound]","CGI Improvement Minimally Improved, %","[1]; 15 mg, Week 2",(45%)
same,"CGI Improvement Minimally Worse, %","[1]; 15 mg, Week 2",(6%)
same,"CGI Improvement Much Improved, %","[1]; 15 mg, Week 2",(27%)
same,"CGI Improvement Much Worse, %","[1]; 15 mg, Week 2",(<1%)
same,"CGI Improvement No Change, %","[1]; 15 mg, Week 2",(18%)
same,"CGI Improvement Very Much Improved, %","[1]; 15 mg, Week 2",(4%)
same,"CGI Improvement Minimally Improved, %","[1]; 15 mg, Week 4",(29%)
same,"CGI Improvement Minimally Worse, %","[1]; 15 mg, Week 4",(7%)
same,"CGI Improvement Much Improved, %","[1]; 15 mg, Week 4",(36%)
same,"CGI Improvement Much Worse, %","[1]; 15 mg, Week 4",(3%)
same,"CGI Improvement No Change, %","[1]; 15 mg, Week 4",(17%)
same,"CGI Improvement Very Much Improved, %","[1]; 15 mg, Week 4",(7%)
same,"CGI Improvement Minimally Improved, %","[1]; 15 mg, Week 6/Endpoint",(29%)
same,"CGI Improvement Minimally Worse, %","[1]; 15 mg, Week 6/Endpoint",(7%)
same,"CGI Improvement Much Improved, %","[1]; 15 mg, Week 6/Endpoint",(34%)
same,"CGI Improvement Much Worse, %","[1]; 15 mg, Week 6/Endpoint",(3%)
same,"CGI Improvement No Change, %","[1]; 15 mg, Week 6/Endpoint",(14%)
same,"CGI Improvement Very Much Improved, %","[1]; 15 mg, Week 6/Endpoint",(12%)
same,"Change from Baseline in BPRS Psychosis Cluster Score, Mean (SD)","[2]; Olanzapine 15 mg, Week 1",−1.9 (2.3)
same,"Change from Baseline in BPRS Psychosis Cluster Score, Median","[2]; Olanzapine 15 mg, Week 1",−2
same,"Change from Baseline in BPRS Psychosis Cluster Score, Mean (SD)","[2]; Olanzapine 15 mg, Week 2",−3.1 (2.6)
same,"Change from Baseline in BPRS Psychosis Cluster Score, Median","[2]; Olanzapine 15 mg, Week 2",−3
same,"Change from Baseline in BPRS Psychosis Cluster Score, Mean (SD)","[2]; Olanzapine 15 mg, Week 3",−4.0 (3.2)
same,"Change from Baseline in BPRS Psychosis Cluster Score, Median","[2]; Olanzapine 15 mg, Week 3",−4
same,"Change from Baseline in BPRS Psychosis Cluster Score, Mean (SD)","[2]; Olanzapine 15 mg, Week 4",−4.4 (3.5)
same,"Change from Baseline in BPRS Psychosis Cluster Score, Median","[2]; Olanzapine 15 mg, Week 4",−5
same,"Change from Baseline in BPRS Psychosis Cluster Score, Mean (SD)",[2]; [5],−4.9 (4.0)
same,"Change from Baseline in BPRS Psychosis Cluster Score, Median",[2]; [5],−5
same,mean change (SD) from Baseline to Endpoint in BPRS psychosis cluster score,[2]; olanzapine 15 mg,−4.9 (4.0)
"O=c1[nH]c2cccc(N3CCN(Cc4cccc(-c5ccccc5)c4)CC3)c2o1 [Bifeprunox, 7-[4-([1,1′-biphenyl]-3-ylmethyl)-1-piperazinyl]-2(3H)-benzoxazolone]","CGI Improvement Minimally Improved, %","[1]; 30 mg, Week 2",(45%)
same,"CGI Improvement Minimally Worse, %","[1]; 30 mg, Week 2",(9%)
same,"CGI Improvement Much Improved, %","[1]; 30 mg, Week 2",(21%)
same,"CGI Improvement Much Worse, %","[1]; 30 mg, Week 2",(4%)
same,"CGI Improvement No Change, %","[1]; 30 mg, Week 2",(19%)
same,"CGI Improvement Very Much Improved, %","[1]; 30 mg, Week 2",(2%)
same,"CGI Improvement Minimally Improved, %","[1]; 30 mg, Week 4",(30%)
same,"CGI Improvement Minimally Worse, %","[1]; 30 mg, Week 4",(11%)
same,"CGI Improvement Much Improved, %","[1]; 30 mg, Week 4",(32%)
same,"CGI Improvement Much Worse, %","[1]; 30 mg, Week 4",(6%)
same,"CGI Improvement No Change, %","[1]; 30 mg, Week 4",(17%)
same,"CGI Improvement Very Much Improved, %","[1]; 30 mg, Week 4",(5%)
same,"CGI Improvement Minimally Improved, %","[1]; 30 mg, Week 6/Endpoint",(28%)
same,"CGI Improvement Minimally Worse, %","[1]; 30 mg, Week 6/Endpoint",(13%)
same,"CGI Improvement Much Improved, %","[1]; 30 mg, Week 6/Endpoint",(33%)
same,"CGI Improvement Much Worse, %","[1]; 30 mg, Week 6/Endpoint",(7%)
same,"CGI Improvement No Change, %","[1]; 30 mg, Week 6/Endpoint",(15%)
same,"CGI Improvement Very Much Improved, %","[1]; 30 mg, Week 6/Endpoint",(5%)
same,"CGI Improvement Minimally Improved, %","[1]; 40 mg, Week 2",(37%)
same,"CGI Improvement Minimally Worse, %","[1]; 40 mg, Week 2",(7%)
same,"CGI Improvement Very Much Improved, %","[1]; 40 mg, Week 2",(<1%.)
same,"CGI Improvement Minimally Improved, %","[1]; 40 mg, Week 4",(29%)
same,"CGI Improvement Minimally Worse, %","[1]; 40 mg, Week 4",(8%)
same,"CGI Improvement Very Much Improved, %","[1]; 40 mg, Week 4",(3%)
same,"CGI Improvement Minimally Improved, %","[1]; 40 mg, Week 6/Endpoint",(30%)
same,"CGI Improvement Minimally Worse, %","[1]; 40 mg, Week 6/Endpoint",(8%)
same,"CGI Improvement Very Much Improved, %","[1]; 40 mg, Week 6/Endpoint",(7%)
same,"CGI Improvement Much Improved, %",[1]; Week 2,(19%)
same,"CGI Improvement Much Worse, %",[1]; Week 2,(10%)
same,"CGI Improvement No Change, %",[1]; Week 2,(22%)
same,"CGI Improvement Very Much Worse, %",[1]; Week 2,(<1%)
same,"CGI Improvement Much Improved, %",[1]; Week 4,(30%)
same,"CGI Improvement Much Worse, %",[1]; Week 4,(11%)
same,"CGI Improvement No Change, %",[1]; Week 4,(17%)
same,"CGI Improvement Very Much Worse, %",[1]; Week 4,(1%)
same,"CGI Improvement Much Improved, %",[1]; Week 6/Endpoint,(27%)
same,"CGI Improvement Much Worse, %",[1]; Week 6/Endpoint,(11%)
same,"CGI Improvement No Change, %",[1]; Week 6/Endpoint,(16%)
same,"CGI Improvement Very Much Worse, %",[1]; Week 6/Endpoint,(1%)
same,effect on patients' status of metabolic syndrome,[3]; BX either dose (20 or 30 mg/day),no treatment effect
same,"metabolic profile (weight changes, blood lipids, metabolic syndrome)",[3]; bifeprunox 20 or 30 mg/day,A favorable metabolic profile
same,"Change from Baseline in BPRS Psychosis Cluster Score, Mean (SD)","[2]; Bifeprunox 20 mg, Week 1",−1.4 (2.3)
same,"Change from Baseline in BPRS Psychosis Cluster Score, Median","[2]; Bifeprunox 20 mg, Week 1",−1
same,"Change from Baseline in BPRS Psychosis Cluster Score, Mean (SD)","[2]; Bifeprunox 20 mg, Week 2",−2.1 (2.9)
same,"Change from Baseline in BPRS Psychosis Cluster Score, Median","[2]; Bifeprunox 20 mg, Week 2",−2
same,"Change from Baseline in BPRS Psychosis Cluster Score, Mean (SD)","[2]; Bifeprunox 20 mg, Week 3",−2.6 (3.4)
same,"Change from Baseline in BPRS Psychosis Cluster Score, Median","[2]; Bifeprunox 20 mg, Week 3",−3
same,"Change from Baseline in BPRS Psychosis Cluster Score, Median","[2]; Bifeprunox 20 mg, Week 4",−3
same,"Change from Baseline in BPRS Psychosis Cluster Score, Mean (SD)",[2]; [6],−3.1 (3.9)
same,"Change from Baseline in BPRS Psychosis Cluster Score, Median",[2]; [6],−3
same,"Change from Baseline in BPRS Psychosis Cluster Score, Trt Effect (bifeprunox—placebo)",[2]; [6],−0.6
same,"Change from Baseline in BPRS Psychosis Cluster Score, Mean (SD)","[2]; Bifeprunox 30 mg, Week 1",−1.7 (2.5)
same,"Change from Baseline in BPRS Psychosis Cluster Score, Median","[2]; Bifeprunox 30 mg, Week 1",−2
same,"Change from Baseline in BPRS Psychosis Cluster Score, Mean (SD)","[2]; Bifeprunox 30 mg, Week 2",−2.3 (3.3)
same,"Change from Baseline in BPRS Psychosis Cluster Score, Median","[2]; Bifeprunox 30 mg, Week 2",−2
same,"Change from Baseline in BPRS Psychosis Cluster Score, Mean (SD)","[2]; Bifeprunox 30 mg, Week 3",−2.7 (3.8)
same,"Change from Baseline in BPRS Psychosis Cluster Score, Median","[2]; Bifeprunox 30 mg, Week 3",−3
same,"Change from Baseline in BPRS Psychosis Cluster Score, Mean (SD)","[2]; Bifeprunox 30 mg, Week 4",−3.0 (4.0)
same,"Change from Baseline in BPRS Psychosis Cluster Score, Median","[2]; Bifeprunox 30 mg, Week 4",−3
same,"Change from Baseline in BPRS Psychosis Cluster Score, Mean (SD)",[2]; [7],−3.2 (4.4)
same,"Change from Baseline in BPRS Psychosis Cluster Score, Median",[2]; [7],−3
same,"Change from Baseline in BPRS Psychosis Cluster Score, Trt Effect (bifeprunox—placebo)",[2]; [7],−0.5
same,"BPRS psychosis cluster score, treatment effect (bifeprunox—placebo)",[2]; bifeprunox 20 mg,−0.6
same,mean change (SD) from Baseline to Endpoint in BPRS psychosis cluster score,[2]; bifeprunox 20 mg,−3.1 (3-9)
same,"BPRS psychosis cluster score, treatment effect (bifeprunox—placebo)",[2]; bifeprunox 30 mg,−0.5
same,mean change (SD) from Baseline to Endpoint in BPRS psychosis cluster score,[2]; bifeprunox 30 mg,−3.2 (4.4)
same,change in mean fasting glucose at endpoint,[4]; 6-month study,+4.32 mg/dL
same,change in non-fasting glucose at endpoint,[4]; bifeprunox total group,+1.16 mg/dL
